How the values were obtained:
H226 (human lung cancer) = experiment: Inhibition of cell proliferation (ATP luminescence or MTS assay), H226; format: cell-based; conditions: NCI-H226, 72 h, read-out: Cancer Cell Line: EC50 (nM) H226
Experimental: (§1) The cancer cells lines tested against were: H226 (human lung cancer); N87 (human gastric cancer), OVCAR3 (human ovarian cancer), HCT116 (human colon cancer), HCT116NM46 (HCT116 subline with multi-drug resistance, including to paclitaxel), and ACR (human breast cancer, multi-drug resistant). Table II also includes comparative data against reference compounds (A)-(G) not according to this invention:
(§2) The ability of test compounds to inhibit cell proliferation was measured by either an ATP luminescence assay or an MTS cell proliferation assay. […] In some instances, both methods were used.
(§3) This is a general procedure for an ATP luminescence assay: Cells are seeded at 1×10^3 cells/well in 96-well plates for 3 h for ATP CellTiterGlo™ assays, respectively. Serial dilutions (1:3) of compounds are added to the wells. Plates are allowed to incubate for 72 h. A CellTiterGlo™ cell viability kit from Promega is used to measure ATP content of cells treated with test compounds following manufacturer's instruction. A decrease in the ATP content is a measure of decrease in cellular viability. The EC50 value—the concentration at which an agent reduces cell viability by 50% of the maximum effect—is determined using PRISM™ software, version 5.0 (GraphPad Software, La Jolla, Calif., USA).
(§4) The following is a description of the MTS cell proliferation assay: CellTiter 96 Aqueous Non-Radioactive Cell proliferation Kit from Promega (Madison, Wis.) is used to determine the number of viable cells in cell proliferation assay. Tumor cells are plated at certain seeding densities in sterile 384-well black clear bottom Matrix plates at 40 μL per well and incubated overnight at 37° C. in 5% CO2 before assaying. On the next day, one set of cell plates (T0 plates) is used to determine time zero cell density, and 3-(4,5-dimethylthiazol-2-yl)-5-(3-carboxymethoxyphenyl)-2-(4-sulfophenyl)-2H-tetrazolium is added at 4 μL/well into T0 plates followed by incubation at 37° C. in 5% CO2 for three hours. This tetrazolium reagent is bioreduced by […] to form a formazan product which is soluble in aqueous solution. Absorbance at 490 nm is measured on an Envision reader (Perkin Elmer, Boston, Mass.). On the same day, compounds are added into remaining cell plates (T72 plates) and incubated at 37° C. in 5% CO2. After 72 hours, 4 μL MTS reagents are then added into those cell plates. The plates are further incubated at 37° C. in 5% CO2 for three hours and the absorbance values at A490 were measured on an Envision reader.

[1] = system: ADR (human breast cancer, multi-drug resistant); experiment: Inhibition of cell proliferation (ATP luminescence or MTS assay), ADR; format: cell-based; conditions: 72 h, read-out: Cancer Cell Line: EC50 (nM) ADR
Experimental: as §1, §2
This is a general procedure for an ATP luminescence assay: Cells are seeded at 1×10^3 cells/well in 96-well plates for 3 h for ATP CellTiterGlo™ assays, respectively. Serial dilutions (1:3) of compounds are added to the wells. Plates are allowed to incubate for 72 h. […]
The following is a description of the MTS cell proliferation assay: CellTiter 96 Aqueous Non-Radioactive Cell proliferation Kit from Promega (Madison, Wis.) is used to determine the number of viable cells in cell proliferation assay. […] Absorbance at 490 nm is measured on an Envision reader (Perkin Elmer, Boston, Mass.). […] The plates are further incubated at 37° C. in 5% CO2 for three hours and the absorbance values at A490 were measured on an Envision reader.

[2] = system: N87 (human gastric cancer); experiment: Inhibition of cell proliferation (ATP luminescence or MTS assay), N87; format: cell-based; conditions: 72 h, read-out: Cancer Cell Line: EC50 (nM) N87
Experimental: as §1, §2, §3, §4

[3] = system: OVCAR3 (human ovarian cancer); experiment: Inhibition of cell proliferation (ATP luminescence or MTS assay), OVCAR3; format: cell-based; conditions: OVCAR-3, 72 h, read-out: Cancer Cell Line: EC50 (nM) OVCAR3
Experimental: as §1, §2, §3, §4

[4] = system: HCT116 (human colon cancer); experiment: Inhibition of cell proliferation (ATP luminescence or MTS assay), HCT116; format: cell-based; conditions: HCT-116, 72 h, read-out: Cancer Cell Line: EC50 (nM) HCT116
Experimental: as §1, §2, §3, §4

[5] = system: HCT116/VM46 (HCT116 subline with multi-drug resistance, including to paclitaxel); experiment: Inhibition of cell proliferation (ATP luminescence or MTS assay), HCT116/VM46; format: cell-based; conditions: Homo sapiens, HCT-116/VM46, multi-drug resistant HCT116 subline, 72 h, read-out: Cancer Cell Line: EC50 (nM) HCT116/VM46
Experimental: as §1, §2, §3, §4

cancer cells [6] = conditions: Kaur et al. 2006; cited from earlier work
[7] = system: various cancer cell lines; conditions: Kaur et al. 2006; cited from earlier work
cancer cells [8] = conditions: cancer cells versus normal cells; Kaur et al. 2006; cited from earlier work
[9] = in vitro assays; Kaur et al. 2006; cited from earlier work

SMILES	EC50 (H226 (human lung cancer))	EC50 [1]	EC50 [2]	EC50 [3]	EC50 [4]	EC50 [5]	antiproliferative potency compared with paclitaxel and vinblastine (cancer cells [6])	activity in xenograft assays [7]	induction of apoptosis (cancer cells [8])	antiangiogenic properties [9]
CCCN(C(=O)[C@@H](NC(=O)[C@H]1CCCCN1C)[C@@H](C)CC)[C@H](C[C@@H](OC(=O)NC)c1nc(C(=O)N[C@H](CCC(=O)O)Cc2ccc(N)cc2)cs1)C(C)C [(E), reference compound]	28 nM	189 nM								
CCCN(C(=O)[C@@H](NC(=O)[C@H]1CCCCN1C)[C@@H](C)CC)[C@H](C[C@@H](OC(C)=O)c1nc(C(=O)N[C@@H](Cc2ccc(N)cc2)CC(C)(C)C(=O)O)cs1)C(C)C [(Ia-1)]	0.089 nM		0.03 to 0.2 nM	0.016 to 0.04 nM						
CCCN(C(=O)[C@@H](NC(=O)[C@H]1CCCCN1C)[C@@H](C)CC)[C@H](C[C@@H](OC(=O)NC)c1nc(C(=O)N[C@@H](Cc2ccc(N)cc2)CC(C)(C)C(=O)O)cs1)C(C)C [(Ia-2), (S)-5-(4-aminophenyl)-4-(2-((5R,7R,10S)-10-((S)-sec-butyl)-7-isopropyl-12-((R)-1-methylpiperidin-2-yl)-3,9,12-trioxo-8-propyl-4-oxa-2,8,11-triazadodecan-5-yl)thiazole-4-carboxamido)-2,2-dimethylpentanoic acid]	0.33 to 1.1 nM	9.5 nM	0.65 to 1 nM	0.07 to 0.1 nM	0.58 nM	1.22 nM				
CCCN(C(=O)[C@@H](NC(=O)[C@H]1CCCCN1C)C(C)C)[C@H](C[C@@H](OC(C)=O)c1nc(C(=O)N[C@@H](Cc2ccc(N)cc2)CC(C)(C)C(=O)O)cs1)C(C)C [(Ia-3)]	0.086 nM		0.16 nM	0.019 nM	0.13 nM	0.19 nM				
CCCN(C(=O)[C@@H](NC(=O)[C@H]1CCCCN1C)[C@@H](C)CC)[C@H](C[C@@H](OC(=O)NC)c1nc(C(=O)N[C@@H](Cc2ccc(N)cc2)CC2(C(=O)O)CC2)cs1)C(C)C [(Ib-1), 1-((S)-3-(4-aminophenyl)-2-(2-((5R,7R,10S)-10-((S)-sec-butyl)-7-isopropyl-12-((R)-1-methylpiperidin-2-yl)-3,9,12-trioxo-8-propyl-4-oxa-2,8,11-triazadodecan-5-yl)thiazole-4-carboxamido)propyl)cyclopropanecarboxylic acid]	0.63 nM		1.7 nM	0.07 nM						
CCCN(C(=O)[C@@H](NC(=O)[C@H]1CCCCN1C)[C@@H](C)CC)[C@H](C[C@@H](OC(=O)NC)c1nc(C(=O)N[C@@H](Cc2ccc(N)cc2)CC2(C(=O)OC)CC2)cs1)C(C)C [(Ib-2), methyl 1-((S)-3-(4-aminophenyl)-2-(2-((5R,7R,10S)-10-((S)-sec-butyl)-7-isopropyl-12-((R)-1-methylpiperidin-2-yl)-3,9,12-trioxo-8-propyl-4-oxa-2,8,11-triazadodecan-5-yl)thiazole-4-carboxamido)propyl)cyclopropanecarboxylate]	0.4 nM		4.4 nM	0.15 nM						
CCCN(C(=O)[C@@H](NC(=O)[C@H](NC)C(C)C)[C@@H](C)CC)[C@H](C[C@@H](OC(C)=O)c1nc(C(=O)N[C@@H](Cc2ccccc2)CC(C)(C)C(=O)O)cs1)C(C)C [(Ic-1), (S)-4-(2-((3R,6S,9R,11R)-6-((S)-sec-butyl)-3,9-diisopropyl-4,7,13-trioxo-8-propyl-12-oxa-2,5,8-triazatetradecan-11-yl)thiazole-4-carboxamido)-2,2-dimethyl-5-phenylpentanoic acid]	0.038 nM		0.2 nM	0.012 nM	0.064 nM	0.51 nM				
CCCN(C(=O)[C@@H](NC(=O)[C@H](NC)C(C)C)[C@@H](C)CC)[C@H](C[C@@H](OC(=O)NC)c1nc(C(=O)N[C@@H](Cc2ccccc2)CC(C)(C)C(=O)O)cs1)C(C)C [(Ic-2)]	0.31 nM		0.37 nM	0.04 nM	0.26 nM	7.5 nM				
CC[C@H](C)[C@H](NC(=O)[C@H]1CCCCN1C)C(=O)N(COC(=O)CC(C)C)[C@H](C[C@@H](OC(C)=O)c1nc(C(=O)N[C@@H](Cc2ccc(O)cc2)C[C@H](C)C(=O)O)cs1)C(C)C [tubulysin A]							more potent than paclitaxel and vinblastine	active in xenograft assays	induced apoptosis in cancer cells but not in normal cells	significant potential antiangiogenic properties

Reference: patent publication US10077287B2, “Tubulysin analogs and methods of making and use” (priority 2014, dated 2018)
